From patent US6875865B1, “Selected derivatives of K-252a” (Cephalon, Inc., priority 1996, dated 2005)

tested on: basal forebrain cultures; test: Basal Forebrain ChAT Activity Assay; assay type: cell-based, rat; conditions: day six, concentration not given, tested between 10 nM and 500 nM, at least 120% of control = active
Method: Compounds of the invention were assessed for their ability to promote survival and increase in ChAT activity in basal forebrain cultures. ChAT activity in these cultures is a biochemical marker for the cholinergic neurons (less than 5% of the cells in culture), which represent the major cholinergic input to the hippocampal formation, olfactory nucleus, interpeduncular nucleus, cortex, amygdala, and parts of the thalamus. […] The basal forebrain was dissected from embryonic day 17 or 18 rat embryos and the cells were […] with Dispase™ (neutral protease, Collaborative Research). Neurons were plated at 5×10^4 cells/well (1.5×10^5 cells/cm^2) in wells of 96-well plates previously coated with […] and laminin. Cells were cultured in serum-free N2 medium containing 0.05% bovine serum albumin (BSA) (Bottenetein et al., supra) at 37° in a humidified atmosphere of 5% CO2/95% air. ChAT activity was measured in vitro at day six, using a modification of the Formum procedure (supra) according to McManaman et al. (supra) and Glicksman et al. (J. Neurochem. 61:210-221, 1993).
(§1) Compounds which increased ChAT activity at least 120% of the control activity are considered active.

SMILES	ChAT Activity maximum efficacy % of Control (conc)
COC(=O)C1(O)CC2OC1(C)n1c3ccc(C(=O)CSc4ncccn4)cc3c3c4c(c5c6cc(C(=O)CSc7ncccn7)ccc6n2c5c31)C(=O)NC4 (stereo not drawn) [Compound 49]	<120 % of Control
COC(=O)C1(O)CC2OC1(C)n1c3ccc(CCI)cc3c3c4c(c5c6cc(CCI)ccc6n2c5c31)C(=O)NC4 (stereo not drawn) [Compound 70a]	<120 % of Control
COC(=O)C1(O)CC2OC1(C)n1c3ccc(CCN4CCCCC4)cc3c3c4c(c5c6cc(CCN7CCCCC7)ccc6n2c5c31)C(=O)NC4 (stereo not drawn) [Compound 75]	<120 % of Control
COC(=O)C1(O)CC2OC1(C)n1c3ccc(CCN4CCOCC4)cc3c3c4c(c5c6cc(CCN7CCOCC7)ccc6n2c5c31)C(=O)NC4 (stereo not drawn) [Compound 76]	<120 % of Control
COC(=O)C1(O)CC2OC1(C)n1c3ccc(CCN(C)CCO)cc3c3c4c(c5c6cc(CCN(C)CCO)ccc6n2c5c31)C(=O)NC4 (stereo not drawn) [Compound 78]	<120 % of Control
CNCCc1ccc2c(c1)c1c3c(c4c5cc(CCNC)ccc5n5c4c1n2C1CC(O)(C(=O)OC)C5(C)O1)CNC3=O (stereo not drawn) [Compound 79]	<120 % of Control
COC(=O)C1(O)CC2OC1(C)n1c3ccc(CCNCc4ccc(OC)cc4)cc3c3c4c(c5c6cc(CCNCc7ccc(OC)cc7)ccc6n2c5c31)C(=O)NC4 (stereo not drawn) [Compound 80]	<120 % of Control
COC(=O)C1(O)CC2OC1(C)n1c3ccc(CCCN4CCOCC4)cc3c3c4c(c5c6cc(CCCN7CCOCC7)ccc6n2c5c31)C(=O)NC4 (stereo not drawn) [Compound 83]	<120 % of Control
CCN(CC)CCCc1ccc2c(c1)c1c3c(c4c5cc(CCCN(CC)CC)ccc5n5c4c1n2C1CC(O)(C(=O)OC)C5(C)O1)CNC3=O (stereo not drawn) [Compound 84]	<120 % of Control
COC(=O)CSCCc1ccc2c(c1)c1c3c(c4c5cc(CCSCC(=O)OC)ccc5n5c4c1n2C1CC(O)(C(=O)OC)C5(C)O1)CNC3=O (stereo not drawn) [Compound 89]	<120 % of Control
CCOC(=O)CCSCCc1ccc2c(c1)c1c3c(c4c5cc(CCSCCC(=O)OCC)ccc5n5c4c1n2C1CC(O)(C(=O)OC)C5(C)O1)CNC3=O (stereo not drawn) [Compound 90]	<120 % of Control
COC(=O)C1(O)CC2OC1(C)n1c3ccc(CCSc4ccncc4)cc3c3c4c(c5c6cc(CCSc7ccncc7)ccc6n2c5c31)C(=O)NC4 (stereo not drawn) [Compound 93]	<120 % of Control
COC(=O)C1(O)CC2OC1(C)n1c3ccc(CCCSc4nc5ccccc5s4)cc3c3c4c(c5c6cc(CCCSc7nc8ccccc8s7)ccc6n2c5c31)C(=O)NC4 (stereo not drawn) [Compound 96]	<120 % of Control
COC(=O)C1(O)CC2OC1(C)n1c3ccc(COCCN(C)C)cc3c3c4c(c5c6cc(C=Cc7ccccn7)ccc6n2c5c31)C(=O)NC4 (stereo not drawn) [Compound 104]	<120 % of Control

same assay, conditions: day six, maximum efficacy at 50 nM

SMILES	ChAT Activity maximum efficacy % of Control (conc)
COC(=O)C1(O)CC2OC1(C)n1c3ccccc3c3c4c(c5c6cc(C#CCN(C)C)ccc6n2c5c31)C(=O)NC4 (stereo not drawn) [Compound 61]	166 (50 nM) % of Control
COCc1ccc2c(c1)c1c3c(c4c5cc(C=Cc6ccccn6)ccc5n5c4c1n2C1(C)OC5CC1(O)C(=O)OC)C(=O)NC3 (stereo not drawn) [Compound 102]	176 (50 nM) % of Control
CCOCc1ccc2c(c1)c1c3c(c4c5cc(C=Cc6ccccn6)ccc5n5c4c1n2C1(C)OC5CC1(O)C(=O)OC)C(=O)NC3 (stereo not drawn) [Compound 103]	154 (50 nM) % of Control
CCSCc1ccc2c(c1)c1c3c(c4c5cc(C=Cc6ccccn6)ccc5n5c4c1n2C1(C)OC5CC1(O)C(=O)OC)C(=O)NC3 (stereo not drawn) [Compound 105]	136 (50 nM) % of Control

same assay, conditions: day six, maximum efficacy at 250 nM

SMILES	ChAT Activity maximum efficacy % of Control (conc)
COC(=O)C1(O)CC2OC1(C)n1c3ccc(C(=O)CSc4ccncc4)cc3c3c4c(c5c6ccccc6n2c5c31)C(=O)NC4 (stereo not drawn) [Compound 42b]	164 (250 nM) % of Control
COC(=O)C1(O)CC2OC1(C)n1c3ccc(C=CCN(C)C)cc3c3c4c(c5c6cc(C=CCN(C)C)ccc6n2c5c31)C(=O)NC4 (stereo not drawn) [Compound 64]	165 (250 nM) % of Control
COC(=O)C1(O)CC2OC1(C)n1c3ccc(CCCOC=O)cc3c3c4c(c5c6cc(CCCOC=O)ccc6n2c5c31)C(=O)NC4 (stereo not drawn) [Compound 73b]	171 (250 nM) % of Control
COC(=O)C1(O)CC2OC1(C)n1c3ccc(CCCO)cc3c3c4c(c5c6cc(CCCO)ccc6n2c5c31)C(=O)NC4 (stereo not drawn) [Compound 73c]	190 (250 nM) % of Control
CCN(CC)CCc1ccc2c(c1)c1c3c(c4c5cc(CCN(CC)CC)ccc5n5c4c1n2C1CC(O)(C(=O)OC)C5(C)O1)CNC3=O (stereo not drawn) [Compound 77]	132 (250 nM) % of Control
COC(=O)C1(O)CC2OC1(C)n1c3ccc(CCCN4CCCCC4)cc3c3c4c(c5c6cc(CCCN7CCCCC7)ccc6n2c5c31)C(=O)NC4 (stereo not drawn) [Compound 82]	150 (250 nM) % of Control
COC(=O)C1(O)CC2OC1(C)n1c3ccc(CSCCN(C)C)cc3c3c4c(c5c6cc(C=Cc7ccccn7)ccc6n2c5c31)C(=O)NC4 (stereo not drawn) [Compound 106]	135 (250 nM) % of Control

tested on: dissociated spinal cord cultures; test: Spinal Cord ChAT Activity Assay; assay type: cell-based, rat; conditions: concentration not given, at least 120% of control = active
Method: The effect of selected ring substituted K-252a derivatives on CHAT activity was assayed in dissociated spinal cord cultures prepared from fetal rats using the procedure described in U.S. Pat. No. 5,461,146, Columns 26 and 27, Examples 6 and 7. ChAT is the enzyme that catalyzes the synthesis of the neurotransmitter acetylcholine, and it is a specific biochemical marker for cholinergic neurons. In the spinal cord, the large majority of cholinergic neurons are motor neurons. Assay of this enzyme may thus be used as an indication of the effects of a factor, or actors, on the survival of cholinergic neurons and/or regulation of this enzyme.
as §1

SMILES	ChAT Activity maximum efficacy % of Control (conc)
COC(=O)CCc1ccc2c(c1)c1c3c(c4c5cc(CCC(=O)OC)ccc5n5c4c1n2C1CC(O)(C(=O)OC)C5(C)O1)CNC3=O (stereo not drawn) [Compound 139]	<120 % of Control

same assay, conditions: maximum efficacy at 30 nM

SMILES	ChAT Activity maximum efficacy % of Control (conc)
COC(=O)C=Cc1ccc2c(c1)c1c3c(c4c5cc(C=CC(=O)OC)ccc5n5c4c1n2C1CC(O)(C(=O)OC)C5(C)O1)CNC3=O (stereo not drawn) [Compound 1]	153 (30 nM) % of Control
COCc1ccc2c(c1)c1c3c(c4c5cc(C=Cc6ccccn6)ccc5n5c4c1n2C1CC(O)(C(=O)OC)C5(C)O1)CNC3=O (stereo not drawn) [Compound 116]	231 (30 nM) % of Control
CCOCc1ccc2c(c1)c1c3c(c4c5cc(C=Cc6ccccn6)ccc5n5c4c1n2C1CC(O)(C(=O)OC)C5(C)O1)CNC3=O (stereo not drawn) [Compound 117]	232 (30 nM) % of Control
CCSCc1ccc2c(c1)c1c3c(c4c5cc(C=Cc6ccccn6)ccc5n5c4c1n2C1CC(O)(C(=O)OC)C5(C)O1)CNC3=O (stereo not drawn) [Compound 118]	249 (30 nM) % of Control
COC(=O)C1(O)CC2OC1(C)n1c3ccc(C=Cc4ccccn4)cc3c3c4c(c5c6cc(CSc7ccccn7)ccc6n2c5c31)C(=O)NC4 (stereo not drawn) [Compound 119]	272 (30 nM) % of Control

same assay, conditions: maximum efficacy at 300 nM

SMILES	ChAT Activity maximum efficacy % of Control (conc)
COC(=O)C1(O)CC2OC1(C)n1c3ccc(CCOC=O)cc3c3c4c(c5c6cc(CCOC=O)ccc6n2c5c31)C(=O)NC4 (stereo not drawn) [Compound 70b]	169 (300 nM) % of Control
COC(=O)C1(O)CC2OC1(C)n1c3ccc(C=Cc4ccccn4)cc3c3c4c(c5c6cc(CSc7nc8ccccc8[nH]7)ccc6n2c5c31)C(=O)NC4 (stereo not drawn) [Compound 120]	257 (300 nM) % of Control
CCC=Cc1ccc2c(c1)c1c3c(c4c5cc(C=Cc6ccccn6)ccc5n5c4c1n2C1CC(O)(C(=O)OC)C5(C)O1)CNC3=O (stereo not drawn) [Compound 122]	279 (300 nM) % of Control
CCOC(=O)CCc1ccc2c(c1)c1c3c(c4c5cc(CCC(=O)OCC)ccc5n5c4c1n2C1CC(O)(C(=O)OC)C5(C)O1)CNC3=O (stereo not drawn) [Compound 140]	156 (300 nM) % of Control
COC(=O)C1(O)CC2OC1(C)n1c3ccc(C=Cc4ccccn4)cc3c3c4c(c5c6cc(Br)ccc6n2c5c31)C(=O)NC4 (stereo not drawn) [Compound 142]	223 (300 nM) % of Control
COC(=O)C1(O)CC2OC1(C)n1c3ccc(CCc4ccccn4)cc3c3c4c(c5c6cc(Br)ccc6n2c5c31)C(=O)NC4 (stereo not drawn) [Compound 143]	264 (300 nM) % of Control
COC(=O)C1(O)CC2OC1(C)n1c3ccc(C=Cc4ccncc4)cc3c3c4c(c5c6cc(C=Cc7ccncc7)ccc6n2c5c31)C(=O)NC4 (stereo not drawn) [Compound 145]	129 (300 nM) % of Control
COC(=O)C1(O)CC2OC1(C)n1c3ccc(CCc4ccncc4)cc3c3c4c(c5c6cc(CCc7ccncc7)ccc6n2c5c31)C(=O)NC4 (stereo not drawn) [Compound 146]	153 (300 nM) % of Control
COC(=O)C1(O)CC2OC1(C)n1c3ccccc3c3c4c(c5c6cc(C=Cc7ncc[nH]7)ccc6n2c5c31)C(=O)NC4 (stereo not drawn) [Compound 148]	206 (300 nM) % of Control
COCOCc1ccc2c(c1)c1c3c(c4c5ccccc5n5c4c1n2C1CC(O)(C(=O)OC)C5(C)O1)CNC3=O (stereo not drawn) [Compound 154]	177 (300 nM) % of Control
COCOCc1ccc2c(c1)c1c3c(c4c5cc(COCOC)ccc5n5c4c1n2C1CC(O)(C(=O)OC)C5(C)O1)CNC3=O (stereo not drawn) [Compound 155]	197 (300 nM) % of Control
